This note sets out measurements from patent US6552192B1, “Substituted nitrogen heterocyclic derivatives and pharmaceutical use thereof” (Ustau Experimentalni Botaniky AV-CR, priority 1999, dated 2003).

Read-outs that look alike come from different tables or passages of the source.

In one data set the target is T1, CDC2 (p34^cdc2) (Homo sapiens, UniProt P06493).
T1 construct: made in house; host or cells: Sf9 insect cells (baculovirus co-infection)
Nature of the data set: CDK inhibition assay, p34cdc2 kinase (histone H1 phosphorylation). The class given is biochemical. As to conditions: 1 mg/ml histone H1, 15 μM ATP. The procedure: Cyclin-dependent kinases (p34^cdc2, p33^cdk2, p33^cdk4) and cyclins (cyclin B, E and D1) are produced in Sf9 insect cells coinfected with appropriate baculoviral constructs. The cells are harvested 68-72 hrs post infection in lysis buffer for 30 min on ice and the soluble fraction is recovered by centrifugation at 14.000 g for 10 min. The protein extract is stored at −80° C.
Lysis buffer: 50 mM Tris pH 7,4, 150 mM NaCl, 5 mM EDTA, 20 mM NaF, 1% Tween, 1 mM DTT, 0.1 mM PMSF, leupeptine, aprotomine
To carry out experiments on kinetics under linear conditions, the final point test system for kinase activity measurement is used. The kinase is added to reaction mixture in such a way as to obtain linear activity with respect to the concentration of enzyme and with respect to time.
Kinase activity is determined at 30° C. in the kinase buffer.
Tested compounds are usually dissolved to 100 mM solutions in DMSO, final concentration of DMSO in reaction mixture never exceeds 1%. The controls contain suitable dilutions of DMSO.
After 10 min, addition 3×SDS sample buffer stops the incubations. […] The measurement of kinase activity is done using digital image analysis.
The kinase activity is expressed as a percentage of maximum activity, the apparent inhibition constants are determined by graphic analysis. Kinase buffer: 50 mM Hepes pH 7.4, 10 mM MgCl2, 5 mM EGTA, 10 mM 2-glycerolphosphate, 1 mM NaF, 1 mM DTT

For the next data set, the target named is IκB-α. Nature of the data set: IκB-α kinase inhibition, in vitro kinase assay. The class given is biochemical.
The test system of data set [1] is T-lymphoblastic leukemia cell line CEM. Nature of the data set: In vitro cytotoxicity, MTT assay, CEM. The class given is cell-based. As to conditions: Homo sapiens, 72 hours. The text has this:
(§1) One of the parameters used, as the basis for colorimetric assays, is the metabolic activity of viable cells. For example, a microtiter assay, which uses the tetrazolium salt MTT, is now widely used to quantitate cell proliferation and cytotoxicity. For instance, this assay is used in drug screening programs and in chemosensitivity testing. Because only metabolically active cells cleave tetrazolium salts, these assays detect viable cells exclusively. In the case of MTT assay, yellow soluble tetrazolium salt is reduced to coloured water-insoluble formazan salt. After it is solubilized, the formazan formed can easily and rapidly be quantified in a conventional ELISA plate reader at 570 nm (maximum absorbance). The quantity of reduced formazan corresponds to number of vital cells in the culture.
(§2) The cells were maintained in Nunc/Corning 80 cm^2 plastic tissue culture flasks and cultured in cell culture medium (DMEM with 5 g/l glucose, 2 mM glutamine, 100 U/ml penicillin, 100 μg/ml streptomycin, 10% fetal calf serum and sodium bicarbonate).
(§3) The cell suspensions that were prepared and diluted according to the particular cell type and the expected target cell density (2.500-30.000 cells per well based on cell growth characteristics) were added by pipette (80 μl) into 96/well microtiter plates. Inoculates were allowed a pre-incubation period of 24 hours at 37° C. and 5% CO2 for stabilisation. Four-fold dilutions of the intended test concentration were added at time zero in 20 μl aliquots to the microtiter plate wells. Usually, test compound was evaluated at six 4-fold dilutions. […] All drug concentrations were examined in duplicates. Incubations of cells with the test compounds lasted for 72 hours at 37° C., in 5% CO2 atmosphere and 100% humidity. At the end of incubation period, the cells were assayed by using the MTT. Ten microliters of the MTT stock solution were pipetted into each well and incubated further for 1-4 hours. […] The optical density (OD) was measured at 540 nm with the Labsystem iEMS Reader MF (UK). The tumour cell survival (TCS) was calculated using the following equitation: TCS=(ODdrug exposed well/mean ODcontrol wells)×100%. The TCS50 value, the drug concentration lethal to 50% of the tumour cells, was calculated from the obtained dose response curves.
On the technique in general: Formazan colour is commonly taken as a measure of viable cells.

In a further data set the test system is B16 melanoma. Nature of the data set: In vitro cytotoxicity, MTT assay, B16. The class given is cell-based. Conditions: Mus musculus, 72 hours.
Source text: as §1, §2, §3

The subject of data set [2] is normal human lymphocytes, spontaneous proliferation. Nature of the data set: Spontaneous proliferation of lymphocytes, 3H-thymidine incorporation. As to conditions: Lymphocyte, 72 hours, unstimulated lymphocytes. The data set is classed as cell-based. The procedure:
(§4) Human heparinized peripheral blood was obtained from healthy volunteers by cubital vein punction.
(§5) The cells were diluted at target density of 1.100.000 cells/ml were added by pipet (180 μl) into 96/well microtiter plates. Four-fold dilutions of the intended test concentration were added at time zero in 20 μl aliquots to the microtiter plate wells. Usually, test compound was evaluated at six 4-fold dilutions. […] Incubations of cells with test compounds lasted for 72 hours at 37° C., in 5% CO2 atmosphere and 100% humidity. At the end of incubation period, the cells were assayed by using the [^3H]-TdR:
(§6) Cell cultures were incubated with […] (20 μl of stock solution 500 μCi/ml) per well for 6 hours at 37° C. and 5% CO2. The automated cell harvester was used to lyse cells in water and adsorb the DNA onto glass-fiber filters in the format of microtiter plate. The DNA incorporated [^3H]-TdR was retained on the filter while unincorporated material passes through. The filters were dried at room temperature overnight, sealed into a sample bag with 10-12 ml of scintillant. The amount of [^3]H-TdR present in each filter (in CCPM) was determined by scintillation counting in a Betaplate liquid scintillation counter. The effective dose of immunosuppressant (ED) was calculated using the following equotation: ED=(CCPMdrug exposed well/mean CCPMcontrol wells)×100%.

Data set [3] deals with normal human lymphocytes, mitogen activated proliferation. Put plainly: Mitogen (concanavalin A) activated proliferation of lymphocytes, 3H-thymidine incorporation. The class given is cell-based. Conditions: Lymphocyte, 72 hours. The procedure: as §4, §5, §6
On the technique in general: Dividing cells build labelled thymidine or BrdU into new DNA.

[4] abbreviates: unit nM printed beside the value.

What is called IC50 is the concentration needed to halve the response being measured. A high value points to weaker potency. One may read the melting point as the temperature of the solid-liquid transition.

T1 sequence (P06493 whole entry, species assumed): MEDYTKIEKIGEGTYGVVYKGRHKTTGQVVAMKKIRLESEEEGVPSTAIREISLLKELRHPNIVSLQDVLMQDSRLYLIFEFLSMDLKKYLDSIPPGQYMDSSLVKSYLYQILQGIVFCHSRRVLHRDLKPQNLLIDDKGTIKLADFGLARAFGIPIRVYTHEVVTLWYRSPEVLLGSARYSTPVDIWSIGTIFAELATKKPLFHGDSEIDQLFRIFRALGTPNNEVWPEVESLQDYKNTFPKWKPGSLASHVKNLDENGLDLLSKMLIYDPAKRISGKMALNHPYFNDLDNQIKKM
T1 sequence (P14635 whole entry partner, species assumed): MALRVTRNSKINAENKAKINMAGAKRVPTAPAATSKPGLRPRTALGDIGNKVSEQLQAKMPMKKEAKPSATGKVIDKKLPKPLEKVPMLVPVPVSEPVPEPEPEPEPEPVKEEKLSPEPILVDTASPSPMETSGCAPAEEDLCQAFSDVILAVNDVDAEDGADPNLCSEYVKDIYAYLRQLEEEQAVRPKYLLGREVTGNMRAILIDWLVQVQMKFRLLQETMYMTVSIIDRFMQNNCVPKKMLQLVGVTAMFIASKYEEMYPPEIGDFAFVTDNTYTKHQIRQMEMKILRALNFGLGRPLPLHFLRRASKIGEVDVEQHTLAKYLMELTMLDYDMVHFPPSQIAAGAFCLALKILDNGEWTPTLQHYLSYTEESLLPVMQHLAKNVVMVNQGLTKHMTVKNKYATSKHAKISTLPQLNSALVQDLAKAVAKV

Turning to `Cn1c(NCCO)nc2c(NCc3ccccc3)nc(NCCO)nc21`, the IC50 is 125000 nM against CDC2 (p34^cdc2) (30° C., 10 min); 154000 nM on IκB-α; above 167 µM in data set [1]; above 167 µM in the data set with B16 melanoma; at least 250 µM in data set [2]; 169 µM in data set [3].

For `Cn1c(O)nc2c(NCc3ccccc3)nc(NCCO)nc21`, the 50% inhibitory concentration (IC50) against CDC2 (p34^cdc2) (30° C., 10 min) came out at 13500 nM; against IκB-α it was 16200 nM; in data set [1] it was 45.5 µM; in the data set with B16 melanoma, 56.2 µM; in data set [2], 201 µM; in data set [3] it was 48.6 µM.

As for `Cn1c(S)nc2c(NCc3ccccc3)nc(NCCO)nc21`, the concentration for half-maximal inhibition (IC50) is 22400 nM against CDC2 (p34^cdc2) (30° C., 10 min); 35700 nM against IκB-α; 92.4 µM in data set [1]; 85.7 µM with B16 melanoma; at least 250 µM in data set [2]; 83.5 µM in data set [3].

For the compound `CC(C)n1c(NCCO)nc2c(NCc3ccccc3)nc(NCCCO)nc21`, the 50% inhibitory concentration (IC50) at CDC2 (p34^cdc2) (30° C., 10 min) is 144000 nM; against IκB-α, 153000 nM; in data set [1], above 167 µM; in the data set on B16 melanoma, above 167 µM; in data set [2] it was 181 µM; in data set [3], 29.3 µM.

In the case of `CC(C)n1c(N)nc2c(NCc3ccccc3)nc(NCCCO)nc21`, the concentration for half-maximal inhibition (IC50) on CDC2 (p34^cdc2) (30° C., 10 min) was found to be 8520 nM; on IκB-α it was 12800 nM; in data set [1], 8.52 µM; with B16 melanoma it was 6.8 µM; in data set [2], 143 µM; in data set [3] it was 1.59 µM.

Take `CC(C)n1c(O)nc2c(NCc3ccccc3)nc(NCCCO)nc21`: the IC50 at CDC2 (p34^cdc2) (30° C., 10 min) was 6480 nM; against IκB-α, 12600 nM; in data set [1], 7.48 µM; in the data set with B16 melanoma it was 5.6 µM; in data set [2] it was 163 µM; in data set [3] it was 2.1 µM.

Take `CC(C)[C@H](CO)Nc1nc(Nc2cccc(Cl)c2)c2nc(F)n(C(C)C)c2n1`: the results for the 50% inhibitory concentration (IC50) (against CDC2 (p34^cdc2) (setting [4]); against IκB-α (setting [4]); in data set [1]) were 3.8 nM, 11 nM and 2.5 µM, respectively.

On to `CC[C@H](CO)Nc1nc(NCc2ccccc2)c2nc(NCN)n(C(C)C)c2n1`, for which the IC50 at CDC2 (p34^cdc2) (30° C., 10 min) was determined as 181000 nM; against IκB-α, 193000 nM; in data set [2], 177 µM; in data set [3] it was 25.8 µM.

With `CC[C@H](CO)Nc1nc(NCc2ccccc2)c2nc(F)n(C(C)C)c2n1`, the concentration for half-maximal inhibition (IC50) against CDC2 (p34^cdc2) (30° C., 10 min) was determined as 380 nM; against IκB-α it was 1200 nM; in data set [1] it was 3.38 µM; in the data set on B16 melanoma, 3.2 µM.

`CC(C)n1c(Br)nc2c(NCc3ccccc3)nc(NCCCO)nc21` [2-(3-hydroxypropylamino)-6-benzylamino-8-bromo-9-isopropypurine] gave a melting point of 156 to 161 °C. Also, half-maximal inhibition at CDC2 (p34^cdc2) (30° C., 10 min) (IC50) required 12900 nM. Besides, at IκB-α, the concentration for half-maximal inhibition (IC50) was determined as 24500 nM. Besides, in data set [1], the 50% inhibitory concentration (IC50) was found to be 117 µM. In the data set on B16 melanoma, this compound had an IC50 of 76.4 µM. This compound registered a 50% inhibitory concentration (IC50) in data set [2] of 178 µM. The compound also had an IC50 in data set [3] of 5.9 µM.

Compound `CSc1nc2c(NCc3ccccc3)nc(NCCCO)nc2n1C(C)C` [2-(3-hydroxypropylamino)-6-benzylamino-8-methylthio-9-isopropylpurine] came in with a melting point of 64 to 67 °C. The compound further returned a half-maximal inhibitory concentration (IC50) in data set [1] of 68.4 µM. Besides, the IC50 in the data set with B16 melanoma came out at 60.6 µM.

`COc1cccc(CNc2nc(Cl)nc3c2nc(Br)n3C(C)C)c1` [Example 3, 6-(3-Methoxybenzylamino)-2-chloro-8-bromo-9-isopropylpurine] returned a melting point of 123 to 125 °C.
